Source: the SangsterLogP compilation

Key:
[1] = method code SF, from DOI: 10.1016/j.bmc.2005.05.004, PMID: 15946850; details: pH 7.4
[2] = from Wadhwa, L.; Chandiran, S.; Sharma, P. (2004). Alkyl esters of 6-methoxy-2-naphthylacetic acid as potential prodrugs - Synthesis, physicochemical properties, chemical stability and enzymatic …; details: pH 7.4
[3] = not given; remark: listed apart in the source
[4] = method code SF-AS, from Kourounakis, P.; Chilliard, N. (1983). Ionization constants and partition coefficients of some 1,1-diphenyl-1-alkoxy-3-dialkylamino-2-propanones with analgesic activity. Pharmazie, 38(6)388-389.; details: pH 7.4
[5] = method code SF-HPLC, from DOI: 10.1002/etc.5620081103
[6] = method code SF-AS, from DOI: 10.1021/jm00371a026, PMID: 6425501; details: pH 7.4
[7] = method code SF-AS, from DOI: 10.1135/cccc19881862
[8] = method code SF-AS, from DOI: 10.1080/10826076.2011.619030
[9] = method code SF-HPLC, from DOI: 10.1002/jlac.1995199512305
[10] = method code SF-AS, from PMID: 5136171
[11] = not given; remark: listed apart in the source
[12] = not given; remark: listed apart in the source
[13] = method code SF-RC, from DOI: 10.1002/ps.2780410303
[14] = method code SF-AS, from DOI: 10.1016/0048-3575(88)90061-2
[15] = not given; remark: listed apart in the source
[16] = method code SF-AS, from DOI: 10.1006/pest.1994.1014
[17] = not given; remark: listed apart in the source
[18] = method code SF-HPLC, from DOI: 10.1016/0378-5173(92)90116-j; details: pH 7.4
[19] = not given; remark: listed apart in the source

[O-][n+]1onc(-c2ccc(OCCCc3c[nH]cn3)cc2)c1CO
logD [1]: 1.83

COc1cccc2c1C(=O)c1c(O)c3c(c(O)c1C2=O)C[C@@](O)(C(=O)CO)C[C@@H]3O[C@H]1C[C@H](N)C[C@H](C)O1
logP: 0.01

COc1ccc2cc(CC(=O)OC(C)C)ccc2c1
logD [2]: 4

O=c1[nH]ccc2c(Nc3c(Cl)cc(C4=NNCC4)cc3Cl)nc3ccncc3c12
logP [3]: 1.43

CCOC(C(=O)CN1CCOCC1)(c1ccccc1)c1ccccc1
logD [4]: 1.08

COc1ccc2cc(CC(=O)OCC(C)C)ccc2c1
logD [2]: 4.71

C=CCN(CCC#N)c1cc(NC(C)=O)c(/N=N/c2c(Br)cc([N+](=O)[O-])cc2[N+](=O)[O-])cc1OC
logP [5]: 5.4

CO[C@@]12[C@H](COC(N)=O)C3=C(C(=O)C(C)=C(Nc4ccccc4)C3=O)N1C[C@@H]1N[C@@H]12
logD [6]: 1.3

O=C1C(c2nc3ccccc3cc2O)=C(O)c2ccccc21
logP [5]: 5

CCCOC(C(=O)CN(C)C)(c1ccccc1)c1ccccc1
logD [4]: 1.73

O=c1[nH]ccc2c(Nc3c(F)cc(F)cc3Cl)nc3ccncc3c12
logP [3]: 1.75

O=C(O)C(OCc1ccccc1)c1ccccc1 (configuration not stated)
logD ([7]; pH 3.4): 2

CC1(C)OC2C(COC3CC(O)C(O)C(CO)O3)OC(n3ccc(=O)[nH]c3=O)C2O1 (configuration not stated)
logP [8]: -1.56

Cc1cn(C2CC(N=[N+]=[N-])C(COP(=O)(OCC3OC(n4cc(C)c(=O)[nH]c4=O)CC3N=[N+]=[N-])C(O)c3ccc(Cl)cc3)O2)c(=O)[nH]c1=O (configuration not stated)
logP [9]: 1.45

CCOC(=O)c1cnc2cc(OCc3ccccc3)c(OCCOC)cc2c1O
logP [10]: 1.95

O=c1[nH]ccc2c(Nc3c(Cl)cc(C(O)C(F)F)cc3Cl)nc3ccncc3c12 (configuration not stated)
logP [3]: 1.46

COC1C(N)CC(OC2CC(O)(C(=O)CO)Cc3c(O)c4c(c(O)c32)C(=O)c2ccccc2C4=O)OC1C (configuration not stated)
logP: 0.39

CC1CCC2C(C)C(OC3OC(C(=O)O)C(O)C(O)C3O)OC3OC4(C)CCC1C32OO4 (configuration not stated)
logP [11]: 1.08

OC1(c2ccc(Br)cc2)c2ccccc2C2=NCCN21 (configuration not stated)
logP [12]: 1.9

CC(C)C1(C)N=C(c2ncc(CO)cc2C(=O)O)NC1=O (configuration not stated)
logD ([13]; pH 2.5): -0.21

CCOC1OC2OC3(C)CCC4C(OC5OC(C(=O)O)C(O)C(O)C5O)CCC(C1C)C24OO3 (configuration not stated)
logP [11]: 1.05

CCOC(=O)Cc1ccc2cc(OC)ccc2c1
logD [2]: 3.04

COc1ccc(COC(C(=O)O)c2ccccc2)cc1Cl (configuration not stated)
logD ([7]; pH 3.4): 2.45

O=C(NC(=O)c1c(F)cccc1F)Nc1ccc(Oc2ccccn2)cc1
logP [14]: 1.57

CC1(C)SC2C(NC(O)c3ccccc3)C(=O)N2C1C(=O)O (configuration not stated)
logP [15]: 1.4

Cc1cccc(C(=O)NN(C(=O)c2ccccc2Cl)C(C)(C)C)c1
logP [16]: 3.11

CSc1cnc(C2=NC(C)(C(C)C)C(=O)N2)c(C(=O)O)c1 (configuration not stated)
logD ([13]; pH 2.8): 0.75

O=C(O)CCCC(=O)c1ccc(-c2ccc(-c3ccccc3)cc2)cc1
logD ([7]; pH 3.5): 3.35

CC(C)(C)c1ccc(C(O)CCCN2CCC(C(O)c3ccccc3)CC2)cc1 (configuration not stated)
logP [17]: 4.06

O=C(NC(=O)c1c(F)cccc1F)Nc1ccc(Oc2ncc(C(F)(F)F)cc2Cl)cc1
logP [14]: 3.53

OC1(c2ccc(F)cc2)c2ccccc2C2=NCCN21 (configuration not stated)
logP [12]: 0.95

C#CCOC(C(=O)CN(C)C)(c1ccccc1)c1ccccc1
logD [4]: 0.7

CCC(C(=O)OCc1cccc(COC(=O)C(CC)C(CO)Cc2cncn2C)c1)C(CO)Cc1cncn1C (configuration not stated)
logD [18]: 1.99

CCOC(=O)c1cnc2cc(OCCOC)c(OC)cc2c1O
logP [10]: 1.36

CC1(C)OC2C(COC(=O)c3ccccc3)OC(n3ccc(=O)[nH]c3=O)C2O1 (configuration not stated)
logP [8]: 1.29

CCOC(=O)c1cnc2cc(OCCOC(C)C)c(OCC(C)C)cc2c1O
logP [10]: 2.17

CC(C)(C)N(NC(=O)c1cccc(F)c1)C(=O)c1ccccc1Cl
logP [16]: 2.88

CC(=O)OCCN(CCC#N)c1ccc(/N=N/c2nc3ccc([N+](=O)[O-])cc3s2)cc1
logP [5]: 4.6

N#Cc1c(-c2ccc(OCCCc3c[nH]cn3)cc2)no[n+]1[O-]
logD [1]: 2.99

OC1(c2ccc(I)cc2)c2ccccc2C2=NCCN21 (configuration not stated)
logP [12]: 2.2

CO[C@@]12[C@H](COC(N)=O)C3=C(C(=O)C(C)=C(Nc4nc(C)c(C)s4)C3=O)N1C[C@@H]1N[C@@H]12
logD [6]: 1.29

OCc1nonc1-c1ccc(OCCCc2c[nH]cn2)cc1
logD [1]: 1.96

COc1cccc(OC)c1C(=O)N[C@@H]1C(=O)N2[C@@H]1SC(C)(C)[C@@H]2C(=O)O
logP [15]: 1.22

COc1cc(N=Nc2c(Br)cc([N+](=O)[O-])cc2Br)c(NC(C)=O)cc1N(CCOC(C)=O)CCOC(C)=O
logP [5]: 4.8

COCC(c1c(O)c2ccccc2oc1=O)c1c(O)c2ccccc2oc1=O
logP [19]: 1.38

CC1(C)OC2C(COC3CC(O)C(O)C(CO)O3)OC(n3ccc(=O)n(C(=O)c4ccccc4)c3=O)C2O1 (configuration not stated)
logP [8]: 0.13

O=C(NC(=O)c1c(F)cccc1F)Nc1ccc(Oc2ncc(Cl)cc2C(F)(F)F)cc1
logP [14]: 3.5

CO[C@@]12[C@H](COC(N)=O)C3=C(C(=O)C(C)=C(Nc4ccc(C)nc4)C3=O)N1C[C@@H]1N[C@@H]12
logD [6]: 0.59

O=C(CCCN1CCC(C(O)(c2ccccc2)c2ccccc2)CC1)c1ccccc1
logP [17]: 4.42

N#Cc1nonc1-c1ccc(OCCCc2c[nH]cn2)cc1
logD [1]: 3.04

CCC(C(=O)OCCCCCCOC(=O)C(CC)C(CO)Cc1cncn1C)C(CO)Cc1cncn1C (configuration not stated)
logD [18]: 1.84

O=C(O)CCC(=O)c1ccc(-c2ccc(-c3ccccc3)cc2)cc1
logD ([7]; pH 3.5): 3.2

CC(=O)C1(O)Cc2c(O)c3c(c(O)c2C(OC2CC(N)C(O)C(C)O2)C1)C(=O)c1ccccc1C3=O (configuration not stated)
logP: 0.68

CCOC1OC2OC3(C)CC(OC4OC(C(=O)O)C(O)C(O)C4O)C4C(C)CCC(C1C)C24OO3 (configuration not stated)
logP [11]: 1.73

CC1(C)S[C@@H]2[C@H](NC(=O)Cc3ccccc3)C(=O)N2[C@H]1C(=O)O
logP [15]: 1.83

CCCOC(=O)Cc1ccc2cc(OC)ccc2c1
logD [2]: 4.14

O=C(NC(=O)c1c(F)cccc1F)Nc1ccc(Oc2ccc(C(F)(F)F)cn2)cc1
logP [14]: 2.8

Cc1ccc(Cc2cnc(NCCCCc3ncc(Br)cc3C)[nH]c2=O)cn1
logP [17]: 3.19

O=c1oc2ccccc2c(O)c1C(c1ccccc1)c1c(O)c2ccccc2oc1=O
logP [19]: 1.95

CC#CCOC(C(=O)CN(C)C)(c1ccccc1)c1ccccc1
logD [4]: 0.85

CC(=O)C1(O)Cc2c(O)c3c(c(O)c2C(OC2CC(N)C(O)C(C)O2)C1)C(=O)c1c(O)cccc1C3=O (configuration not stated)
logP: 0.96

OC1(c2cccc(F)c2)c2ccccc2C2=NCCN21 (configuration not stated)
logP [12]: 1.28

Cc1ncc2c(c1O)COC2c1ccc(Cl)cc1 (configuration not stated)
logP [17]: 2.34

CC(C)(C)N(NC(=O)c1cccc(Cl)c1)C(=O)c1ccccc1Cl
logP [16]: 3.49

CCCc1cnc(C2=NC(C)(C(C)C)C(=O)N2)c(C(=O)O)c1 (configuration not stated)
logD ([13]; pH 2.8): 1.27

CC1(C)OC2C(COC3CC(O)C(O)C(CO)O3)OC(n3ccc(=O)n(Cc4ccccc4)c3=O)C2O1 (configuration not stated)
logP [8]: 0.59

CC(O)c1cc(Cl)c(Nc2nc3ccncc3c3c(=O)[nH]ccc23)c(Cl)c1 (configuration not stated)
logP [3]: 1.2

CO[C@@]12[C@@H]3N[C@@H]3CN1C1=C(C(=O)C(Nc3nc(C)cs3)=C(C)C1=O)[C@@H]2COC(N)=O
logD [6]: 1.16

CCOC1OC2OC3(C)C=C(O)C4C(C)CCC(C1C)C24OO3 (configuration not stated)
logP [11]: 2.7

CC(C)(C)N(NC(=O)c1ccccc1F)C(=O)c1ccccc1Cl
logP [16]: 2.63

CCC(C(=O)OCCCCOC(=O)C(CC)C(CO)Cc1cncn1C)C(CO)Cc1cncn1C (configuration not stated)
logD [18]: 1.16

CC(C)C1(C)N=C(c2ncc(S(C)(=O)=O)cc2C(=O)O)NC1=O (configuration not stated)
logD ([13]; pH 2.0): -0.05

CC1(C)SC2C(NC(=O)CCOc3ccccc3)C(=O)N2C1C(=O)O (configuration not stated)
logP [15]: 2.28

CCOC(=O)C(c1c(O)c2ccccc2oc1=O)c1c(O)c2ccccc2oc1=O
logP [19]: 1.32

CCOC(=O)c1cnc2cc(OCC(C)C)c(OCC(C)C)cc2c1O
logP [10]: 2.18

CCC(C(=O)OCCCOC(=O)C(CC)C(CO)Cc1cncn1C)C(CO)Cc1cncn1C (configuration not stated)
logD [18]: 0.68

CCC(c1c(O)c2ccccc2oc1=O)c1c(O)c2ccccc2oc1=O
logP [19]: 2.02
